Results published in patent publication US11213527B2, “Inhibitory effect of low molecular weight compound on cancer and fibrosis” (NATIONAL UNIVERSITY CORPORATION TOTTORI UNIVERSITY, priority 2014, dated 2022).

How the values were obtained:
liver fibrosis = experiment: Liver disease model mice (carbon tetrachloride-induced liver fibrosis); format: in vivo, C57BL/6 male mice; details: glycyrrhizin 150 mg/kg, IC-2 10.6 or 21.2 mg/kg intraperitoneally 3 times a week for 4 weeks, vs vehicle
Method: First, 7-week-old C57BL/6 male mice (Japan SLC, Shizuoka, Japan) were subject to 1-week preparatory rearing. Among them, healthy mice were used. The mice were housed in an animal cage at a room temperature of 22±1° C. and a humidity of 50±5% throughout the preparatory rearing and experimental period and were given ad libitum access to food and water.
A microsyringe (ITO CORPORATION, Shizuoka, Japan) was used to intraperitoneally administer carbon tetrachloride (CCl4: Wako Pure Chemical Industries, Ltd., Osaka, Japan) at 0.2 ml/kg, 3 times a week, for 4, 6, or 8 weeks. Carbon tetrachloride was dissolved into cone oil (Wako Pure Chemical Industries, Ltd.) at a concentration of 10%. The resulting solution was used. After this carbon tetrachloride solution was administered for 4 weeks, the mice were divided into a vehicle administration group, a glycyrrhizin administration group, an ICG-001 administration group, and an IC-2 administration group. Then, a microsyringe was used to intraperitoneally administer, 3 times a week for 4 weeks, carbon tetrachloride and a drug solution prepared in accordance with the following process. Note that the carbon tetrachloride and the drug solution were alternately administered with one-day interval.
Glycyrrhizin (TOKYO CHEMICAL INDUSTRY CO., LTD., Tokyo, Japan) was dissolved in physiological saline. The solution was prepared at a concentration of 30 mg/ml while the pH was adjusted to 7.0 with 4 M NaOH liquid. IC-2 and ICG-001 (AdooQ BioScience, California, USA) were each dissolved in a WellSolve (Celeste Corporation, Tokyo, Japan) at a concentration of 40 mg/ml and 10 mg/ml, respectively. Next, the mixture was heated for 10 min in a hot water bath at 60° C. and was then completely dissolved. A 9-fold volume of physiological saline was added to the WellSolve solution in which the above drugs had each been dissolved. […] Note that an IC-2 dosage was determined on the basis of an effective concentration in vitro. […]

cancer stem cells = details: Fbxw7-deficient model mice; cited from earlier work

## CC1(C)[C@@H](O[C@H]2O[C@H](C(=O)O)[C@@H](O)[C@H](O)[C@H]2O[C@@H]2O[C@H](C(=O)O)[C@@H](O)[C@H](O)[C@H]2O)CC[C@]2(C)[C@H]3C(=O)C=C4[C@@H]5C[C@@](C)(C(=O)O)CC[C@]5(C)CC[C@@]4(C)[C@]3(C)CC[C@@H]12 [glycyrrhizin, Glycyrrhizin, reference compound]
Liver fibrosis
  content of hydroxyproline: reduced content of hydroxyproline

## Cc1ccc(NC(=O)c2ccc(CN3CCN(C)CC3)cc2)cc1Nc1nccc(-c2cccnc2)n1 [imatinib]
Cancer stem cells
  killing of cancer stem cells: cancer stem cells were killed
